# Source: US7759391B2, “Pharmaceutical composition comprising thiacremonone for treating colon cancer” (Chungbuk National University Industry Academic Cooperation …, priority 2007, dated 2010)
# What was measured:
# [1] = target: T1, NF-κB (Homo sapiens, UniProt Q04206); assay: Gel electromobility shift assay (EMSA), NF-κB DNA binding activity, SW620; format: cell-based; conditions: SW620, 30-150 μg/ml, 1 h
# T1 construct: endogenous in cells; host or cells: SW620 and HCT116 human colon cancer cells (ATCC)
# T1 sequence (Q04206 whole entry): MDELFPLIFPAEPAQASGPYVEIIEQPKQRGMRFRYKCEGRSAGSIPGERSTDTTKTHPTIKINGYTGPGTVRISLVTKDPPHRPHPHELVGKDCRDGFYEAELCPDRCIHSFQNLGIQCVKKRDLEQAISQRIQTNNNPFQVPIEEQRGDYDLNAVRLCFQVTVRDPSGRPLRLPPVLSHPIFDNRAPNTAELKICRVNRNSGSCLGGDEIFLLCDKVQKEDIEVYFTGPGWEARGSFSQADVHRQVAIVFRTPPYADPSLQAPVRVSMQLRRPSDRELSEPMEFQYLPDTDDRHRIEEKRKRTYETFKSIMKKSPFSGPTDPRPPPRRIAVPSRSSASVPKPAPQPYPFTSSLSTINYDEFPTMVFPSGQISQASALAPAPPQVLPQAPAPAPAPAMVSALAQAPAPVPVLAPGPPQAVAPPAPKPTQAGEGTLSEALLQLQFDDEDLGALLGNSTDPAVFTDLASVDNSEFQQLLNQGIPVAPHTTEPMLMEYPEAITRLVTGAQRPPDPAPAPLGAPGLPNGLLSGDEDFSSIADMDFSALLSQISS
# T1 sequence (P19838 1-433 partner limits assumed): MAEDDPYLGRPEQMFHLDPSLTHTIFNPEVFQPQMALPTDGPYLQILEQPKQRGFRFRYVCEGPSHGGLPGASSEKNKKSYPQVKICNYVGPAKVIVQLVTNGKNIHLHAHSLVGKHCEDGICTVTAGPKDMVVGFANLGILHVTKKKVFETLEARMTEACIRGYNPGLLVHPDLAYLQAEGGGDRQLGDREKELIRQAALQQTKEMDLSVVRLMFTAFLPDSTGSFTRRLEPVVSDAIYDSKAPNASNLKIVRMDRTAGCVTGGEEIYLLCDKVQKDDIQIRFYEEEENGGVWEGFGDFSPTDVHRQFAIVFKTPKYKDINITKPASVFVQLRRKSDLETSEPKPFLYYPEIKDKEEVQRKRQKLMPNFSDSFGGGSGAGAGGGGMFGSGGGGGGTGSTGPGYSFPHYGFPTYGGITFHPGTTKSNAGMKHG
# Description: (§1) FIG. 1A: Nuclear extract from SW620 (panel a) and HCT116 (panel b) colon cancer cells treated with thiacremonone (30-150 μg/ml) for 1 h was incubated in binding reactions of ^32P-end-labeled oligonucleotide containing the κB sequence. The activation of NF-κB was investigated using EMSA as described in Materials and Methods. For competition assays, nuclear extracts from cells treated with TNF-α were incubated for 1 h before EMSA with unlabled NF-κB oligonucleotide or labeled NF-κB oligonucleotide. For supershift assays, nuclear extracts from cells treated with TNF-α were incubated for 1 h before EMSA with specific antibodies against the p50 and p65 NF-κB isoforms. SS indicates supershift assay using p65 antibody (panel c). Quantification of band intensities from three independent experimental results performed by densitometry (Imaging System) and the value under each band indicated as fold difference from the untreated control group.
# (§2) Gel shift assay was performed according to the manufacturer's recommendations (Promega, Madison, Wis., USA). […] The relative density of the DNA-protein binding bands was scanned by densitometry using MyImage (SLB, Seoul, Korea), and quantified by Labworks 4.0 software (UVP Inc., Upland, Calif., USA).
# [2] = target: T1, NF-κB; assay: Gel electromobility shift assay (EMSA), NF-κB DNA binding activity, HCT116; format: cell-based; conditions: HCT116, 30-150 μg/ml, 1 h
# Description: as §1, §2
# [3] = tested on: NF-κB; assay: NF-κB luciferase reporter assay (pNF-κB-Luc), SW620; format: cell-based, human; conditions: SW620, 30-150 μg/ml, 8 h
# Description: (§3) FIG. 1B: Colon cancer cells were transfected with pNF-κB-Luc plasmid (5×NF-κB) and then activated with TNF-α (150 U/ml) alone or TNF-α plus different concentrations (30-150 μg/ml) of thiacremonone at 37° C. in both SW620 (panel a and b) and HCT116 (panel c and d) colon cancer cells, and then the luciferase activity was determined. All values represent mean±S.D. of three independent experiments performed in triplicate. RLU is relative to luciferase activity in transfected unstimulated cells. *P<0.05 indicates statistically significant differences from the TNF-α-treated group.
# (§4) SW620 and HCT116 human colon cells (2.5×10^5 cells/cm^2) were plated in 24-well plates and transiently transfected with pNF-κB-Luc plasmid (5×NF-κB; Stratagene, La Jolla, Calif., USA) using a mixture of plasmid and lipofectAMINE PLUS in OPTI-MEN according to manufacturer's specifications (Invitrogen, Carlsbad, Calif., USA). The transfected cells were treated with tumor necrosis factor-α (TNF-α) (10 ng/ml) or TPA (50 nM) and different concentrations (30-150 μg/ml) of thiacremonone for 8 h. Luciferase activity was measured by using the luciferase assay kit (Promega, Madison, Wis., USA) according to the manufacturer's instructions (WinGlow, Bad Wildbad, Germany).
# [4] = tested on: NF-κB; assay: NF-κB luciferase reporter assay (pNF-κB-Luc), HCT116; format: cell-based, human; conditions: HCT116, 30-150 μg/ml, 8 h
# Description: as §3, §4
# [5] = tested on: SW620 colon cancer cells; assay: Cell viability / growth, CCK-8 assay, SW620; format: cell-based; conditions: Homo sapiens, SW-620, read-out: IC50 of cell growth inhibition, heading: IC50 of cell growth inhibition, SW620, 48 h
# Description: (§5) Panel b of FIGS. 2A-2C: Cell viability was determined by CCK-8 assay as described in Materials and Methods. SW620 (FIG. 2A) and HCT116 (FIG. 2B) colon cancer cells as well as normal cells (Caco-2) (FIG. 2C) were treated with various doses (30-150 μg/ml) of thiacremonone for different times (12-48 h). Values are each the mean±S.D. of three experiments, each performed in triplicate.
# (§6) SW620 and HCT116 colon cancer cells were plated at a density of 10^4 cells/well in 96-well plates per 100 μl medium. To determine the appropriate concentration that is not cytotoxic to the cells, the cytotoxic effect was evaluated in cells cultured for 12, 24, 36, and 48 h using the cell counting kit-8 assay kit according to the manufacturer's instructions (Dojindo, Gaithersburg, Md., USA). Briefly, 10 μl of the CCK-8 solution was added to cells cultured for the designated time. The plates were incubated for 1-4 h in the incubator. The resulting color was assayed at […] using a microplate absorbance reader (Sunrise, Tecan, Switzerland). Each assay was carried out in triplicate.
# [6] = tested on: HCT116 colon cancer cells; assay: Cell viability / growth, CCK-8 assay, HCT116; format: cell-based; conditions: Homo sapiens, HCT-116, HCT116, 48 h, read-out: IC50 of cell growth inhibition
# Description: as §5, §6
# [7] = tested on: normal colon Caco-2 cells; assay: Cell viability, CCK-8 assay, normal cells; format: cell-based; conditions: Caco-2, 30-150 μg/ml, 12-48 h
# Description: as §5, §6
# [8] = tested on: SW620 colon cancer cells; assay: Apoptosis detection, DAPI/TUNEL staining, SW620; format: cell-based, human; conditions: 24 h
# Description: (§7) FIG. 3B: The apoptotic index was determined as the DAPI-stained TUNEL-positive cell number counted. Values are mean±S.E.M. of three experiments, each performed in triplicate. *P<0.05 indicates statistically significant differences from the untreated group.
# (§8) Apoptosis assay was first performed by using 4,6-diamino-2-phenylindole (DAPI) staining. SW620 and HCT116 human colon cancer cells were cultured in the absence or presence of increasing concentrations of thiacremonone, and induction of apoptotic cell death was evaluated after 24 h. Apoptotic cells were determined by the morphological changes after DAPI staining under fluorescence microscopic observation (DAS microscope, 100× or 200×: Leica Microsystems, Inc., Deefield, Ill., USA). Apoptosis was also evaluated by TUNEL staining assay. In short, cells were cultured on 8-chamber slides. After treatment with thiacremonone (30-150 μg/ml) for 24 h, the cells were washed twice with PBS and fixed by incubation in 4% paraformaldehyde in PBS for 1 h at room temperature. TUNEL assays were performed by using the in situ Cell Death Detection Kit (Roche Diagonostics GmbH, Mannheim, Germany) according to manufacturer's instructions. Total number of cells in a given area was determined by using DAPI and TUNEL staining. The apoptotic index was determined as the number of DAPIstained TUNEL-positive cells divided by the total cell number counted ×100.
# [9] = tested on: HCT116 colon cancer cells; assay: Apoptosis detection, DAPI/TUNEL staining, HCT116; format: cell-based, human; conditions: 24 h
# Description: as §7, §8
# [10] = tested on: SW620 colon cancer cells; assay: Western blot of apoptosis regulatory proteins, SW620; format: cell-based, human; conditions: SW620, 30-150 μg/ml, 24 h
# Description: (§9) The cells were treated with different concentrations (30-150 μg/ml) of thiacremonone at 37° C. for 24 h. Equal amounts of total proteins (50 μg/lane) were subjected to 12% SDS-PAGE. Expressions of Bax, cleaved caspase-3, cleaved PARP, Bcl-2, cIAP1/2, XIAP, and β-actin were detected by western blotting using specific antibodies. β-Actin protein was used an internal control. Panel a: SW620 colon cancer cells. Panel b: HCT116 colon cancer cells. Each band is representative of three independent experiments.
# (§10) Cultured cells were washed twice with 1×PBS, followed by the addition of 1 ml of PBS, and the cells were scraped into a cold Eppendorf tube. Cells were homogenized with lysis buffer [50 mM Tris pH 8.0, 150 mM NaCl, 0.02% sodium azide, 0.2% SDS, 1 mM PMFS, 10 μl/ml aprotinin, 1% igapel 630 (Sigma-Aldrich, St. Louis, Mo., USA), 10 mM NaF, 0.5 mM EDTA, 0.1 mM EGTA, and 0.5% sodium deoxycholate] and centrifuged at 23,000×g for 15 min. The protein concentration was measured by the Bradford method (Bio-Rad Protein Assay; Bio-Rad Laboratories Inc., Hercules, Calif., USA), and equal amount of proteins (50 μg) were separated on a SDS/12%-polyacrylamide gel and then transferred to a Hybond ECL nitrocellulose membrane (Amersham Pharmacia Biotech Inc., Piscataway, N.J., USA). Blots were blocked for 2 h at room temperature with 5% (w/v) non-fat dried milk in Tris-buffered saline [10 mM Tris (pH 8.0) and 150 mM NaCl] solution containing 0.05% tween-20. […] Immunoreactive proteins were detected with the ECL Western blotting detection system. The relative density of the protein bands was scanned by densitometry using MyImage (SLB) and quantified by Labworks 4.0 software (UVP Inc.).
# [11] = tested on: HCT116 colon cancer cells; assay: Western blot of apoptosis regulatory proteins, HCT116; format: cell-based, human; conditions: HCT116, 30-150 μg/ml, 24 h
# Description: as §9, §10
# [12] = tested on: SW620 xenograft; assay: SW620 colon xenograft in nude mice; format: in vivo; conditions: for tumor volume, % of sham control group: day 31
# Source text: To elucidate the anticancer effect of thiacremonone in vivo, the tumor growth on colon xenograft bearing nude mice following thiacremonone treatments were investigated. In SW620 xenograft studies, thiacremonone was administrated intraperitoneally twice per week for 4 weeks to mice with tumors ranging from 100 to 300 mm3 of tumor volume. The mice were weighted twice per week. The change of body weights between saline and thiacremonone-administrated mice (n=10) was not different during the experiment.
# FIG. 5 represents the relative tumor growth delay measured after treatment of thiacremonone (240 and 360 mg/kg for four weeks, n=10) in comparison with the sham control group (saline).
compound,measurement,setting,value
"CC1=C(O)C(=O)C(C)(O)S1 (centres unmarked) [thiacremonone, 2,4-dihydroxy-2,5-dimethyl-thiophene-3-one]",DNA binding activity of NF-κB,[1],decreased DNA binding activity of NF-κB in a dose-dependent manner
same,DNA binding activity of NF-κB,[2],decreased DNA binding activity of NF-κB in a dose-dependent manner
same,TNF-α and TPA induced NF-κB luciferase activity,[3],inhibited TNF-α and TPA induced NF-κB luciferase activity dose-dependently
same,TNF-α and TPA induced NF-κB luciferase activity,[4],inhibited TNF-α and TPA induced NF-κB luciferase activity dose-dependently
same,IC50,[5],105 µg/mL
same,IC50,[6],130 µg/mL
same,cytotoxic effect,[7],no cytotoxic effect
same,apoptotic cell number (DAPI-positive TUNEL-stained cells),"[8]; SW620, 30 μg/ml",0%
same,apoptotic cell number (DAPI-positive TUNEL-stained cells),"[8]; SW620, 60 μg/ml",0%
same,apoptotic cell number (DAPI-positive TUNEL-stained cells),"[8]; SW620, 90 μg/ml",11%
same,apoptotic cell number (DAPI-positive TUNEL-stained cells),"[8]; SW620, 120 μg/ml",25%
same,apoptotic cell number (DAPI-positive TUNEL-stained cells),"[8]; SW620, 150 μg/ml",97%
same,apoptotic cell number,"[9]; HCT116, 30 μg/ml",0%
same,apoptotic cell number,"[9]; HCT116, 60 μg/ml",0%
same,apoptotic cell number,"[9]; HCT116, 90 μg/ml",29%
same,apoptotic cell number,"[9]; HCT116, 120 μg/ml",95%
same,apoptotic cell number,"[9]; HCT116, 150 μg/ml",98%
same,"Expressions of apoptotic proteins Bax, cleaved caspases 3, cleaved PARP",[10],increased
same,"expressions of antiapoptotic protein Bcl-2, cIAP1/2, XIAP and cyclin D1",[10],decreased
same,iNOS and COX-2 expression,[10],inhibited the expressions dose-dependently
same,"Expressions of apoptotic proteins Bax, cleaved caspases 3, cleaved PARP",[11],increased
same,"expressions of antiapoptotic protein Bcl-2, cIAP1/2, XIAP and cyclin D1",[11],decreased
same,iNOS and COX-2 expression,[11],inhibited the expressions dose-dependently
same,"tumor volume, % of sham control group",[12]; 240 mg/kg intraperitoneally twice per week for 4 weeks,92.5%
same,"tumor volume, % of sham control group",[12]; 360 mg/kg intraperitoneally twice per week for 4 weeks,59.1%
same,change of body weights versus saline,"[12]; intraperitoneally twice per week for 4 weeks, nude mice",not different
